Legend:
Type in all cases: cell-based
S. aureus [1] = assay: Antibacterial kinetics; conditions: coated at 6×MIC; followed upto 360 min
Description: A quantity of 200 μL of a solution containing approximately 4.9×10^5 CFU/mL of S. aureus in nutrient broth and 5.1×10^5 CFU/mL in Luria-Bertani (LB) broth were added, and the plates were kept in an incubated shaker at 37° C. The initial time of addition of the bacteria to the wells was taken as zero, and 10 μL aliquots were withdrawn from each of the wells at set time intervals. These aliquots were added immediately to 90 μL of 0.9% saline. These solutions were further diluted by a factor of 10, and 20 μL of all the dilutions was plated on nutrient or LB agar plates immediately. The plates were incubated at 37° C. for 24 h; and bacterial colonies were counted. A plot of CFU (Log10 CFU/mL) versus time was then plotted.
Antibacterial kinetics assay was performed similarly as mentioned earlier.

S. aureus [2] = assay: In-vitro antibacterial activity (MIC/MBC), coated 96-well plate; conditions: 10^5 CFU/mL, 37° C., 24 h, composite as (1c+AgPTS)
Description: (§1) Chitin derivatives were first dissolved in methanol (50 mg/mL) and the solutions were serially diluted. 20 μL of the solutions of different concentrations were added into wells of a 96-well plate. The solution was first air-dried and finally dried in vacuum oven to make a film onto the flat-bottom surface of wells of 96-well plate. Each concentration was applied in triplicate for all the samples to study the antibacterial activity. In order to make films on surfaces such as microscopic glass slide, methanolic solutions of polymer (350 μL) were spin coated onto the glass surface by using a spin coater. […] To prepare thin films, mixed solutions (350 μL) obtained from the solutions of these medically relevant polymers in chloroform and methanolic solution of the chitin derivatives (CHCl3: MeOH=9:1) were spin coated onto the glass surface and dried in air. For the biodegradation study, thin films of the chitin derivatives were prepared on microscopic cover glass.
(§2) To determine the antibacterial activity of the synthesized polymers, 200 μL of 10^5 CFU/mL of bacteria were added to the wells of 96-well plate coated with the chitin derivatives with different amounts. […] The data was then subjected to sigmoidal fitting.

E. coli = assay: as above; conditions: 10^5 CFU/mL, 37° C., 24 h, composite as (1c+AgPTS)
Description: as §1, §2

Cc1ccc(S(=O)(=O)[O-])cc1.[Ag+] [AgPTS, silver para-toluene sulfonate]
Time at which S. aureus was killed (S. aureus [1]): bacteriostatic | MIC (S. aureus [2]): 39 µg/mL | MIC (E. coli): 10 µg/mL

From patent US20180201694A1, “CHITIN DERIVATIVES, METHOD FOR PRODUCTION AND USES THEREOF” (JAWAHARLAL NEHRU CENTRE FOR ADVANCED SCIENTIFIC RESEARCH …, priority 2013, published 2018)
